Experimental data as given in patent US9624182B2, “Compounds as lysophosphatidic acid receptor antagonists” (Amira Pharmaceuticals, Inc., priority 2009, dated 2017).
pIC50: −log10 of the molar value.

Biological target: T1, human LPA1 (Homo sapiens, UniProt Q92633)
T1 construct: the full-length cDNA for human LPA1 was obtained by PCR of the reverse transcription reaction; expressed in transfected cells
Assay: LPA1 calcium flux assay
Type: cell-based
Details: CHO cells expressing human LPA1, stimulated with 10 nM LPA; read-out: HLPA1 Ca Flux IC50
Summary of the method: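 CHO cells stably expressing cloned human LPA1, serum-starved overnight, loaded with Calcium 4 dye 1 h at 37 °C in HBSS/20 mM Hepes with 0.3% fatty-acid-free HSA. Compounds preincubated 30 min at room temperature, then cells stimulated with 10 nM LPA; intracellular Ca2+ read by fluorescence. IC50 from titration curves.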

T1 sequence (Q92633 whole entry): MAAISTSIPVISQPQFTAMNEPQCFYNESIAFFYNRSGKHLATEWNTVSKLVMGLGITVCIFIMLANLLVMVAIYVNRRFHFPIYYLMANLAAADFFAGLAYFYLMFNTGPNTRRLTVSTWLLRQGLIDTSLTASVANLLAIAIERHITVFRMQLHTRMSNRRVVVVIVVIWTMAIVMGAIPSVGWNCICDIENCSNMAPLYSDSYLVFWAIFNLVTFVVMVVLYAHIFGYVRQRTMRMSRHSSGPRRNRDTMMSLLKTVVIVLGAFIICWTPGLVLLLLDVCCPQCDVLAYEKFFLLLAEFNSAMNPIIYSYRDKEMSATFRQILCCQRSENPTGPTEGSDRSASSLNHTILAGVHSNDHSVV

| SMILES | pIC50 |
| --- | --- |
| Cc1noc(-c2ccc(-c3ccc(C4(C(=O)O)CC4)cc3)cc2)c1N(C)C(C)CCc1ccccc1 (centres unmarked) [Compound 1-267, 1-(4′-{3-Methyl-4-[methyl-(1-methyl-3-phenyl-propyl)-amino]-isoxazol-5-yl}-biphenyl-4-yl)-cyclopropanecarboxylic acid] | > 6.52 |
| Cc1noc(-c2ccc(-c3ccc(C4(C(=O)O)CC4)cc3)cc2)c1NC1Cc2ccccc2C1 [Compound 1-271, 1-{4′-[4-(Indan-2-ylamino)-3-methyl-isoxazol-5-yl]-biphenyl-4-yl}-cyclopropanecarboxylic acid] | 6.00 to 6.52 |
| Cc1noc(-c2ccc(-c3ccc(CC(=O)O)cc3)cc2)c1[C@H](O)CSCc1ccccc1 [Compound 1-272, {4′-[4-((S)-2-Benzylsulfanyl-1-hydroxy-ethyl)-3-methyl-isoxazol-5-yl]-biphenyl-4-yl}-acetic acid] | > 6.52 |
| Cc1noc(-c2ccc(-c3ccc(C4(C(=O)O)CC4)cc3)cc2)c1NC(C)COc1ccccc1 (centres unmarked) [Compound 1-279, 1-{4′-[3-Methyl-4-(1-methyl-2-phenoxy-ethylamino)-isoxazol-5-yl]-biphenyl-4-yl}-cyclopropanecarboxylic acid] | > 6.52 |
| Cc1noc(-c2ccc(-c3ccc(C4(C(=O)O)CC4)cc3)cc2)c1Nc1ccc2ccccc2n1 [Compound 1-280, 1-{4′-[3-Methyl-4-(quinolin-2-ylamino)-isoxazol-5-yl]-biphenyl-4-yl}-cyclopropanecarboxylic acid] | > 6.52 |
| Cc1noc(-c2ccc(-c3ccc(C4(CC(=O)O)CC4)cc3)cc2)c1NC(C)CC(C)(C)c1ccccc1 (centres unmarked) [Compound 1-287, (1-{4′-[4-(1,3-Dimethyl-3-phenyl-butylamino)-3-methyl-isoxazol-5-yl]-biphenyl-4-yl}-cyclopropyl)-acetic acid] | > 6.52 |
| Cc1noc(-c2ccc(-c3ccc(C4(C(=O)O)CC4)cc3)cc2)c1Nc1cccnc1 [Compound 1-290, 1-{4′-[3-Methyl-4-(pyridin-3-ylamino)-isoxazol-5-yl]-biphenyl-4-yl}-cyclopropanecarboxylic acid] | 4.30 to 6.00 |
| CCCOc1cccc(Nc2c(C)noc2-c2ccc(-c3ccc(C4(C(=O)O)CC4)cc3)cc2)n1 [Compound 1-293, 1-{4′-[3-Methyl-4-(6-propoxy-pyridin-2-ylamino)-isoxazol-5-yl]-biphenyl-4-yl}-cyclopropanecarboxylic acid] | > 6.52 |
| CCCCOc1cccc(Nc2c(C)noc2-c2ccc(-c3ccc(C4(C(=O)O)CC4)cc3)cc2)n1 [Compound 1-295, 1-{4′-[4-(6-Butoxy-pyridin-2-ylamino)-3-methyl-isoxazol-5-yl]-biphenyl-4-yl}-cyclopropanecarboxylic acid] | > 6.52 |
| Cc1noc(-c2ccc(-c3ccc(C4(C(=O)O)CC4)cc3)cc2)c1Nc1ccccn1 [Compound 1-296, 1-{4′-[3-Methyl-4-(pyridin-2-ylamino)-isoxazol-5-yl]-biphenyl-4-yl}-cyclopropanecarboxylic acid] | < 4.30 |
| Cc1noc(-c2ccc(-c3ccc(C4(C(=O)O)CC4)cc3)cc2)c1Nc1cccc(OC(C)C)n1 [Compound 1-297, 1-{4′-[4-(6-Isopropoxy-pyridin-2-ylamino)-3-methyl-isoxazol-5-yl]-biphenyl-4-yl}-cyclopropanecarboxylic acid] | > 6.52 |
| Cc1noc(-c2ccc(-c3ccc(C4(C(=O)O)CC4)cc3)cc2)c1Nc1cccc(C(=O)O)n1 [Compound 1-298, 6-{5-[4′-(1-Carboxy-cyclopropyl)-biphenyl-4-yl]-3-methyl-isoxazol-4-ylamino}-pyridine-2-carboxylic acid] | 4.30 to 6.00 |
| Cc1noc(-c2ccc(-c3ccc(C4(C(=O)O)CC4)cc3)cc2)c1Nc1cccc(C(=O)NCC(C)(C)C)n1 [Compound 1-300, 1-(4′-{4-[6-(2,2-Dimethyl-propylcarbamoyl)-pyridin-2-ylamino]-3-methyl-isoxazol-5-yl}-biphenyl-4-yl)-cyclopropanecarboxylic acid] | > 6.52 |
| Cc1noc(-c2ccc(-c3ccc(C4(C(=O)O)CC4)cc3)cc2)c1Nc1cccc(OC(C)(C)C)n1 [Compound 1-301, 1-{4′-[4-(6-tert-Butoxy-pyridin-2-ylamino)-3-methyl-isoxazol-5-yl]-biphenyl-4-yl}-cyclopropanecarboxylic acid] | > 6.52 |
| Cc1noc(-c2ccc(-c3ccc(C4(C(=O)O)CC4)cc3)cc2)c1Nc1cccc(O)n1 [Compound 1-302, 1-{4′-[4-(6-Hydroxy-pyridin-2-ylamino)-3-methyl-isoxazol-5-yl]-biphenyl-4-yl}-cyclopropanecarboxylic acid] | 4.30 to 6.00 |

Next, values leading:

| pIC50 | SMILES |
| --- | --- |
| > 6.52 | Cc1noc(-c2ccc(-c3ccc(C4(C(=O)O)CC4)cc3)cc2)c1C(O)CCCc1ccncc1 (centres unmarked) [Compound 1-261, 1-{4′-[4-(1-Hydroxy-4-pyridin-4-yl-butyl)-3-methyl-isoxazol-5-yl]-biphenyl-4-yl}-cyclopropanecarboxylic acid] |
| > 6.52 | Cc1noc(-c2ccc(-c3ccc(CC(=O)O)cc3)cc2)c1C(O)CSCc1cccc(C(F)(F)F)c1 (centres unmarked) [Compound 1-266, (4′-{4-[1-Hydroxy-2-(3-trifluoromethyl-benzylsulfanyl)-ethyl]-3-methyl-isoxazol-5-yl}-biphenyl-4-yl)-acetic acid] |
| > 6.52 | Cc1noc(-c2ccc(-c3ccc(C4(C(=O)O)CC4)cc3)cc2)c1NC1CCc2ccccc2C1 (centres unmarked) [Compound 1-270, 1-{4′-[3-Methyl-4-(1,2,3,4-tetrahydro-naphthalen-2-ylamino)-isoxazol-5-yl]-biphenyl-4-yl}-cyclopropanecarboxylic acid] |
| > 6.52 | Cc1noc(-c2ccc(-c3ccc(CCC(=O)O)cc3)cc2)c1[C@H](O)CSCc1ccccc1 [Compound 1-273, 3-{4′-[4-((S)-2-Benzylsulfanyl-1-hydroxy-ethyl)-3-methyl-isoxazol-5-yl]-biphenyl-4-yl}-propionic acid] |
| > 6.52 | Cc1noc(-c2ccc(-c3ccc(CCC(=O)O)cc3)cc2)c1[C@H](O)CSCc1cccc(C(F)(F)F)c1 [Compound 1-274, 3-(4′-{4-[(S)-1-Hydroxy-2-(3-trifluoromethyl-benzylsulfanyl)-ethyl]-3-methyl-isoxazol-5-yl}-biphenyl-4-yl)-propionic acid] |
| > 6.52 | Cc1noc(-c2ccc(-c3ccc(C4(C(=O)O)CC4)cc3)cc2)c1C(O)CSC(C)(C)C (centres unmarked) [Compound 1-275, 1-{4′-[4-(2-tert-Butylsulfanyl-1-hydroxy-ethyl)-3-methyl-isoxazol-5-yl]-biphenyl-4-yl}-cyclopropanecarboxylic acid] |
| > 6.52 | Cc1noc(-c2ccc(-c3ccc(C4(C(=O)O)CC4)cc3)cc2)c1C(O)CSCC(F)(F)F (centres unmarked) [Compound 1-276, 1-(4′-{4-[1-Hydroxy-2-(2,2,2-trifluoro-ethylsulfanyl)-ethyl]-3-methyl-isoxazol-5-yl}-biphenyl-4-yl)-cyclopropanecarboxylic acid] |
| > 6.52 | Cc1noc(-c2ccc(-c3ccc(C4(C(=O)O)CC4)cc3)cc2)c1C(O)CSc1ccccc1 (centres unmarked) [Compound 1-277, 1-{4′-[4-(1-Hydroxy-2-phenylsulfanyl-ethyl)-3-methyl-isoxazol-5-yl]-biphenyl-4-yl}-cyclopropanecarboxylic acid] |
| > 6.52 | Cc1noc(-c2ccc(-c3ccc(C4(C(=O)O)CC4)cc3)cc2)c1NC(C)CSc1ccccc1 (centres unmarked) [Compound 1-278, 1-{4′-[3-Methyl-4-(1-methyl-2-phenylsulfanyl-ethylamino)-isoxazol-5-yl]-biphenyl-4-yl}-cyclopropanecarboxylic acid] |
| > 6.52 | Cc1noc(-c2ccc(-c3ccc(C4(C(=O)O)CC4)cc3)cc2)c1NC(C)c1cc2ccccc2s1 (centres unmarked) [Compound 1-284, 1-{4′-[4-(1-Benzo[b]thiophen-2-yl-ethylamino)-3-methyl-isoxazol-5-yl]-biphenyl-4-yl}-cyclopropanecarboxylic acid] |
| > 6.52 | Cc1noc(-c2ccc(-c3ccc(C4(CC(=O)O)CC4)cc3)cc2)c1NC(C)c1cc2ccccc2s1 (centres unmarked) [Compound 1-286, (1-{4′-[4-(1-Benzo[b]thiophen-2-yl-ethylamino)-3-methyl-isoxazol-5-yl]-biphenyl-4-yl}-cyclopropyl)-acetic acid] |
| > 6.52 | Cc1noc(-c2ccc(-c3ccc(C4(C(=O)O)CC4)cc3)cc2)c1NC(C)/C=C/c1ccccc1 (centres unmarked) [Compound 1-288, 1-{4′-[3-Methyl-4-((E)-1-methyl-3-phenyl-allylamino)-isoxazol-5-yl]-biphenyl-4-yl}-cyclopropanecarboxylic acid] |
| > 6.52 | COc1cncc(Nc2c(C)noc2-c2ccc(-c3ccc(C4(C(=O)O)CC4)cc3)cc2)c1 [Compound 1-291, 1-{4′-[4-(5-Methoxy-pyridin-3-ylamino)-3-methyl-isoxazol-5-yl]-biphenyl-4-yl}-cyclopropanecarboxylic acid] |
| 6.00 to 6.52 | Cc1noc(-c2ccc(-c3ccc(C4(C(=O)O)CC4)cc3)cc2)c1NC(=O)c1cccc(Br)c1 [Compound 1-292, 1-{4′-[4-(3-Bromo-benzoylamino)-3-methyl-isoxazol-5-yl]-biphenyl-4-yl}-cyclopropanecarboxylic acid] |
| > 6.52 | CCOc1cccc(Nc2c(C)noc2-c2ccc(-c3ccc(C4(C(=O)O)CC4)cc3)cc2)n1 [Compound 1-294, 1-{4′-[4-(6-Ethoxy-pyridin-2-ylamino)-3-methyl-isoxazol-5-yl]-biphenyl-4-yl}-cyclopropanecarboxylic acid] |
| 4.30 to 6.00 | Cc1noc(-c2ccc(-c3ccc(C4(C(=O)O)CC4)cc3)cc2)c1Nc1cccc(C(=O)NCCN(C)C)n1 [Compound 1-299, 1-(4′-{4-[6-(2-Dimethylamino-ethylcarbamoyl)-pyridin-2-ylamino]-3-methyl-isoxazol-5-yl}-biphenyl-4-yl)-cyclopropanecarboxylic acid] |
| 4.30 to 6.00 | CCCCCCCCCCCCOc1cccc(Nc2c(C)noc2-c2ccc(-c3ccc(C4(C(=O)O)CC4)cc3)cc2)n1 [Compound 1-303, 1-{4′-[4-(6-Dodecyloxy-pyridin-2-ylamino)-3-methyl-isoxazol-5-yl]-biphenyl-4-yl}-cyclopropanecarboxylic acid] |
